Tests used:
Assay in all cases: Test C pre-/postemergence herbicide test
Surinam grass = format: in vivo, Urochloa decumbens; details: preemergence
Procedure, shortened: (§1)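 Preemergence: seeds planted and treated with compound in non-phytotoxic solvent with surfactant; postemergence: plants at 2 to 18 cm (1- to 4-leaf stage) sprayed likewise. Kept in greenhouse 12 to 14 days, then visually rated against controls, 0 (no effect) to 100 (complete control).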

cocklebur = format: in vivo, Xanthium strumarium; details: for Plant response rating, Cocklebur: preemergence; for Cocklebur plant response rating: Preemergence, 500 g ai/ha, scale 0 to 100, 0 no effect, 100 complete control
Procedure, shortened: as §1

corn = format: in vivo, Zea mays; details: preemergence
Procedure, shortened: as §1

johnsongrass = format: in vivo, Sorghum halepense; details: preemergence
Procedure, shortened: as §1

morningglory = format: in vivo, Ipomoea coccinea; design: key to Plant response rating, Morningglory: 0 = no effect, 100 = complete control; details: preemergence
Procedure, shortened: as §1

eastern black nightshade = format: in vivo, Solanum ptycanthum; details: preemergence
Procedure, shortened: as §1

pigweed = format: in vivo, Amaranthus retroflexus; details: preemergence
Procedure, shortened: as §1

velvetleaf = format: in vivo, Abutilon theophrasti; details: preemergence
Procedure, shortened: as §1

[1] = 500 g ai/ha, scale 0 to 100 (0 no effect, 100 complete control), visual, 12 to 14 days
[2] = 125 g ai/ha, scale 0 (no effect) to 100 (complete control), visual, 12 to 14 days

SMILES	Plant response rating, Surinam Grass (Surinam grass; 62 g ai/ha, scale 0 to 100)	Plant response rating, Surinam Grass (Surinam grass; 250 g ai/ha, scale 0-100)	Plant response rating, Cocklebur (cocklebur; 62 g ai/ha, scale 0 to 100)	Plant response rating, Cocklebur (cocklebur; [2])	Plant response rating, Cocklebur (cocklebur; 250 g ai/ha, scale 0-100)	Plant response rating, Corn (corn; [2])	Plant response rating, Corn (corn; 250 g ai/ha, scale 0-100)	Plant response rating, Johnsongrass (johnsongrass; 62 g ai/ha, scale 0 to 100)	Plant response rating, Johnsongrass (johnsongrass; [2])	Plant response rating, Johnsongrass (johnsongrass; 250 g ai/ha, scale 0-100)	Plant response rating, Morningglory (morningglory; 62 g ai/ha, scale 0 to 100)	Plant response rating, Morningglory (morningglory; [2])	Plant response rating, Morningglory (morningglory; 250 g ai/ha, scale 0-100)	Plant response rating, Nightshade (eastern black nightshade; 62 g ai/ha, scale 0 to 100)	Plant response rating, Nightshade (eastern black nightshade; [2])	Plant response rating, Nightshade (eastern black nightshade; 250 g ai/ha, scale 0-100)	Plant response rating, Pigweed (pigweed; 62 g ai/ha, scale 0 to 100)	Plant response rating, Pigweed (pigweed; [2])	Plant response rating, Pigweed (pigweed; 250 g ai/ha, scale 0-100)	Plant response rating, Velvetleaf (velvetleaf; 62 g ai/ha, scale 0 to 100)	other results
CCn1nc(C2(C)CC2)cc1C(=O)Nc1cc(C(=O)N(C)C)ccc1F [Compound 299]	75	100	0	40	80	25	60	85	100	100	5	75	100	100	100	100	100	100	100	5	Plant response rating, Surinam Grass (Surinam grass; [1]): 100; Cocklebur plant response rating (cocklebur): 95; Plant response rating, Corn (corn; [1]): 60; Plant response rating, Johnsongrass (johnsongrass; [1]): 100; Plant response rating, Morningglory (morningglory; [1]): 100; Plant response rating, Nightshade (eastern black nightshade; [1]): 100; Plant response rating, Pigweed (pigweed; [1]): 100; Plant response rating, Velvetleaf (velvetleaf; 250 g ai/ha, scale 0-100): 100; Plant response rating, Velvetleaf (velvetleaf; [1]): 100
CCn1nc(C(C)(C)C)cc1C(=S)Nc1cc(C(=S)N(C)C)ccc1F [Compound 305]	50	60	10	15	65	40	45	65	90	95	0	0	5	60	90	100	100	100	100	40	Plant response rating, Surinam Grass (Surinam grass; [1]): 60; Cocklebur plant response rating (cocklebur): 90; Plant response rating, Corn (corn; 62 g ai/ha, scale 0 to 100): 0; Plant response rating, Corn (corn; [1]): 45; Plant response rating, Johnsongrass (johnsongrass; [1]): 95; Plant response rating, Morningglory (morningglory; [1]): 10; Plant response rating, Nightshade (eastern black nightshade; [1]): 100; Plant response rating, Pigweed (pigweed; [1]): 100; Plant response rating, Velvetleaf (velvetleaf; 250 g ai/ha, scale 0-100): 100; Plant response rating, Velvetleaf (velvetleaf; [1]): 100
CCNC(=O)c1cccc(NC(=O)c2cc(C3(C)CC3)nn2CC)c1 [Compound 306]		40	0	0	0	10	20	40	60	80	5	5	10	90	95	100	100	100	100	5	Plant response rating, Surinam Grass (Surinam grass; [1]): 95; Cocklebur plant response rating (cocklebur): 5; Plant response rating, Corn (corn; 62 g ai/ha, scale 0 to 100): 5; Plant response rating, Corn (corn; [1]): 50; Plant response rating, Morningglory (morningglory; [1]): 20; Plant response rating, Nightshade (eastern black nightshade; [1]): 100; Plant response rating, Pigweed (pigweed; [1]): 100; Plant response rating, Velvetleaf (velvetleaf; [1]): 10
CCn1nc(C(C)(C)C)cc1C(=O)Nc1cc(C(=S)N(C)C)ccn1 [Compound 334]	55	95	30	60	70	20	50	90	100	100	5	20	40	100	100	100	100	100	100	5	Plant response rating, Corn (corn; 62 g ai/ha, scale 0 to 100): 0; Plant response rating, Velvetleaf (velvetleaf; 250 g ai/ha, scale 0-100): 85
